Data published in ChEMBL document CHEMBL5634168, “The discovery of an anti-inflammatory monoterpenoid, neoroseoside from the Zea mays” (2024).
Active and inactive are the calls of the source. The rule behind the calls is not given here.

Legend:
[1] = tested on: RAW264.7; test: Antiinflammatory activity in mouse RAW264.7 cells assessed as inhibition of TNF-alpha production; format: functional, cell-based; conditions: dose <= 100.0 µg/ml
[2] = tested on: RAW264.7; test: Antiinflammatory activity in mouse RAW264.7 cells assessed as inhibition of IL-6 production; format: functional, cell-based; conditions: dose <= 100.0 µg/ml
[3] = tested on: RAW264.7; test: Antiinflammatory activity in LPS induced mouse RAW264.7 cells assessed as inhibition of IL-6 production at 100 ug/ml measured after 24 hrs; format: functional; conditions: dose 100 µg/ml
[4] = tested on: RAW264.7; test: Antiinflammatory activity in LPS induced mouse RAW264.7 cells assessed as reduction in TNF-alpha production at 100 ug/ml measured after 24 hrs; format: functional; conditions: dose 100 µg/ml
[5] = tested on: Streptococcus sobrinus; test: Antibacterial activity against Streptococcus sobrinus ATCC 33478 assessed as reduction in bacterial growth at 1.25 to 100 ug/ml by broth microdilution method; format: functional, organism-based; conditions: dose 1.25-100 µg/ml
[6] = tested on: Streptococcus mutans; test: Antibacterial activity against Streptococcus mutans ATCC 25175 assessed as reduction in bacterial growth at 1.25 to 100 ug/ml by broth microdilution method; format: functional, organism-based; conditions: dose 1.25-100 µg/ml
[7] = tested on: Streptococcus mutans; test: Antibacterial activity against Streptococcus mutans ATCC 25175 assessed as reduction in bacterial growth at 1.25 to 100 ug/ml by broth microdilution method relative to control; format: functional; design: scale not given: the % may be the effect or the level left; conditions: dose 1.25-100 µg/ml; at 1.25 to 100 µg/mL
[8] = tested on: Streptococcus sobrinus; test: Antibacterial activity against Streptococcus sobrinus ATCC 33478 assessed as reduction in bacterial growth at 1.25 to 100 ug/ml by broth microdilution method relative to control; format: functional; design: scale not given: the % may be the effect or the level left; conditions: dose 1.25-100 µg/ml; at 1.25 to 100 µg/mL

SMILES	Activity [1]	Activity [2]	Activity [3] [pg/mL]	Activity [4] [pg/mL]	Activity [5]	Activity [6]	Activity [7] [%]	Activity [8] [%]
C[C@@H](/C=C/[C@@]1(O)C(C(=O)O)=CC(=O)CC1(C)C)O[C@@H]1O[C@H](CO)[C@@H](O)[C@H](O)[C@H]1O	Dose-Dependent Effect	Dose-Dependent Effect	1570.7	9806.7	inactive	inactive		
C[C@H]1O[C@@H](c2c(O[C@@H]3O[C@H](CO)[C@@H](O)[C@H](O)[C@H]3O)cc3oc(-c4ccc(O)c(O)c4)cc(=O)c3c2O)C[C@H](O)[C@H]1O [FAROBIN A]	Dose-Dependent Effect	Dose-Dependent Effect	1051.8	9606			28	26
C[C@@H]1O[C@@H](O[C@H]2[C@@H](O)[C@H](O)[C@@H](C)O[C@H]2c2c(O)cc3oc(-c4ccc(O)c(O)c4)cc(=O)c3c2O)[C@@H](O)[C@H](O)[C@H]1O	Dose-Dependent Effect	Dose-Dependent Effect	766.6	7473.5			24	26
